How the values were obtained:
[1] = test system: PRKCH; assay: KINOMEscan; type: binding; conditions: 1000 nM
[2] = test system: RIOK1; assay: KINOMEscan; type: binding; conditions: 1000 nM
[3] = test system: ULK1; assay: KINOMEscan; type: binding; conditions: 1000 nM
[4] = test system: HIPK1; assay: KINOMEscan; type: binding; conditions: 1000 nM
[5] = test system: MLK3; assay: KINOMEscan; type: binding; conditions: 1000 nM
[6] = test system: NEK9; assay: KINOMEscan; type: binding; conditions: 1000 nM
[7] = test system: CSF1R-autoinhibited; assay: KINOMEscan; type: binding; conditions: 1000 nM
[8] = test system: REC-1 cells bone marrow engraftment; assay: REC-1 cells bone marrow engrafted mouse model; type: in vivo; conditions: REC-1 bone marrow engraftment
Protocol: Five-week old female NOD-SCID mice were purchased from the Beijing Vital River Laboratory Animal Technology Co., Ltd (Beijing, China). All animals were housed in a specific pathogen free facility and used according to the animal care regulations of Hefei Institutes of Physical Science, Chinese Academy of Sciences. NOD-SCID mice were induced by intraperitoneal injection of cyclophosphamide (CTX) 50 mg/kg daily for two days. 8 million REC-1 cells in 0.3 mL RPMI1640 medium were injected by intravenous after 24 h. […] Mice were monitored daily and were euthanized when moribund or at early signs of hind limb paralysis.

[9] = test system: CAMK1G; assay: KINOMEscan; type: binding; conditions: 1000 nM
[10] = test system: MEK2; assay: KINOMEscan; type: binding; conditions: 1000 nM
[11] = test system: MYLK; assay: KINOMEscan; type: binding; conditions: 1000 nM
[12] = test system: PKN2; assay: KINOMEscan; type: binding; conditions: 1000 nM
[13] = rat 14-day dose escalation subacute toxicity study; type: in vivo; conditions: rats, up to 800 mg/kg/day, continuous 14 days
Protocol: The subacute toxicity study of CHMFL-BTK-85 was conducted on SD rats, 200g in weight and five weeks in age. All mice were purchased from Gempharmatech Co., Ltd (Nanjing, China). All animals were housed in a specific pathogen-free facility and used according to the animal care regulations of Hefei Institutes of Physical Science Chinese Academy of Sciences. CHMFL-BTK-85 was delivered daily in a HKI solution (0.5% Methocellulose/0.4% Tween 80 in ddH2O) by orally gavage. Body weight was measured daily after CHMFL-BTK-85 treatment.

[14] = test system: WEE2; assay: KINOMEscan; type: binding; conditions: 1000 nM
[15] = test system: ZAP70; assay: KINOMEscan; type: binding; conditions: 1000 nM
[16] = test system: EPHA6; assay: KINOMEscan; type: binding; conditions: 1000 nM
[17] = test system: ANKK1; assay: KINOMEscan; type: binding; conditions: 1000 nM
[18] = test system: CAMK2A; assay: KINOMEscan; type: binding; conditions: 1000 nM
[19] = test system: MEK1; assay: KINOMEscan; type: binding; conditions: 1000 nM
[20] = test system: BRAF(V600E); assay: KINOMEscan; type: binding; conditions: 1000 nM
[21] = test system: PRKX; assay: KINOMEscan; type: binding; conditions: 1000 nM
[22] = test system: EGFR(T790M); assay: KINOMEscan; type: binding; conditions: 1000 nM
[23] = test system: SK-OV-3 cells; assay: NK-cell-mediated ADCC, LDH release cytotoxicity assay, Herceptin; type: cell-based, human
Protocol: The cytotoxicity of NK cells was measured using the CyQUANT™ LDH Cytotoxicity Assay Kit (Invitrogen™, #C20300) according to the manufacturer’s instructions. Briefly, enriched NK cells (6 × 10^5 /ml) were cultured with the same volume of Mino cell and SK-OV-3 cell (1-2 × 10^4 /ml) in a 96-well plate for 4 h with Rituximab and Herceptin (10 μg/mL) and CHMFL-BTK-85 or PCI32765 at 37°C in a humidified CO2 incubator prior to removal of the supernatant for lactate dehydrogenase (LDH) release measurements. Calculate % Cytotoxicity by using the following formula: %Cytotoxicity = (Compound-treated LDH activity-Spontaneous LDH activity)/(Maximum LDH activity-Spontaneous LDH activity)*100.

[24] = test system: BRAF; assay: KINOMEscan; type: binding; conditions: 1000 nM
[25] = test system: ACVR2A; assay: KINOMEscan; type: binding; conditions: 1000 nM
[26] = test system: PAK2; assay: KINOMEscan; type: binding; conditions: 1000 nM
[27] = test system: EGFR(E746-A750del); assay: KINOMEscan; type: binding; conditions: 1000 nM
[28] = test system: PRKD3; assay: KINOMEscan; type: binding; conditions: 1000 nM
[29] = test system: FYN; assay: KINOMEscan; type: binding; conditions: 1000 nM
[30] = test system: PIK3CA(H1047L); assay: KINOMEscan; type: binding; conditions: 1000 nM
[31] = test system: VEGFR2; assay: KINOMEscan; type: binding; conditions: 1000 nM
[32] = test system: PIM3; assay: KINOMEscan; type: binding; conditions: 1000 nM
[33] = test system: 468 kinases/mutants; assay: KINOMEscan kinome-wide selectivity profiling; type: binding; conditions: 1 μM
Source text: Here, we report the discovery of a novel covalent BTK inhibitor, CHMFL-BTK-85 (abbreviated as compd. 85) (chemical structure shown in Fig. 1a), which achieves high potency against BTK and selectivity over other protein kinases. […] To further confirm that compd. 85 could covalently bind to wide-type native BTK in cell, we then conducted a target-engagement assay using the biotinylated analog of compd. 85, i.e., CHMFL-BTK-85B (Supplementary Fig. S2), in REC-1 cell which expresses native BTK kinase. […] To further investigate the selectivity of compd. 85 in the kinome, we then tested it among 468 kinases/mutants with KINOMEscan^TM technology.

[34] = test system: CDKL1; assay: KINOMEscan; type: binding; conditions: 1000 nM
[35] = test system: IKK-epsilon; assay: KINOMEscan; type: binding; conditions: 1000 nM
[36] = test system: FLT3(ITD); assay: KINOMEscan; type: binding; conditions: 1000 nM
[37] = test system: PIM1; assay: KINOMEscan; type: binding; conditions: 1000 nM
[38] = test system: ULK3; assay: KINOMEscan; type: binding; conditions: 1000 nM

C=CC(=O)Nc1cc(Nc2cc(-c3cccc(NC(=O)c4cc5c(s4)CCCC5)c3C)cn(C)c2=O)ccc1N1CCN(CC)CC1 [CHMFL-BTK-85]
Percent Control [1]: 93% | Percent Control [2]: 100% | Percent Control [3]: 100% | Percent Control [4]: 75% | Percent Control [5]: 91% | Percent Control [6]: 100% | Percent Control [7]: 100% | median survival time ([8]; 50 mg/kg/day p.o.): 42 days | median survival time ([8]; 150 mg/kg/day p.o.): 63 days | Percent Control [9]: 94% | Percent Control [10]: 100% | Percent Control [11]: 66% | Percent Control [12]: 81% | tolerability in dose escalation study [13]: well tolerated | Percent Control [14]: 96% | Percent Control [15]: 100% | Percent Control [16]: 100% | Percent Control [17]: 100% | Percent Control [18]: 82% | Percent Control [19]: 100% | Percent Control [20]: 100% | Percent Control [21]: 95% | Percent Control [22]: 98% | effect on antibody-dependent NK-cell-mediated cytotoxicity (ADCC) [23]: did not affect | Percent Control [24]: 100% | Percent Control [25]: 97% | Percent Control [26]: 100% | Percent Control [27]: 100% | Percent Control [28]: 100% | Percent Control [29]: 74% | Percent Control [30]: 100% | Percent Control [31]: 99% | Percent Control [32]: 80% | S Score (1) [33]: 0.00 | Percent Control [34]: 77% | Percent Control [35]: 53% | Percent Control [36]: 99% | Percent Control [37]: 95% | Percent Control [38]: 100%
